Patent publication US12678446B2 (PFIZER INC., priority 2020, dated 2026)

What was measured:
[1] = system: RSV (RSV A2 ECACC, 0709161v); test: RSV plaque reduction assay; type: cell-based, respiratory syncytial virus; details: human respiratory syncytial virus, HepG2, read-out: RSV A2 Plaque EC50, RSV A2 in Hep-G2 cells; mean of at least two experiments unless noted (n = 1)
Summary of the method: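 Eight-point compound dilutions were premixed with RSV A2 (100 PFU/well) and applied to confluent Hep-G2 cells for 2 h, followed by a 2-day incubation at 37° C. under compound-containing 0.8% CMC overlay. EC50 comes from immunostained plaque counts relative to untreated virus wells, averaged over ≥2 runs.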

[2] = cell toxicity CC50; type: cell-based; details: human; Hep-G2 cells; mean of at least two experiments; read-out: Cell Cytotoxicity CC50

Compound `O=C(N[C@H]1N=C(c2ccccc2)c2cccc(F)c2NC1=O)c1c(-c2ccc(C3CC3)nc2)nn2c1OCCC2` [Example 18, 2-(6-Cyclopropylpyridin-3-yl)-N-[(3S)-9-fluoro-2-oxo-5-phenyl-1,3-dihydro-1,4-benzodiazepin-3-yl]-6,7-dihydro-5H-pyrazolo[5,1-b][1,3]oxazine-3-carboxamide] has an EC50 [1] of 96 nM and a CC50 [2] of over 25000 nM.
With `O=C(N[C@H]1N=C(c2ccccc2)c2cccc(F)c2NC1=O)c1c(-c2ccccc2F)nn2c1OC(CN1CCOCC1)CC2` (stereo partly drawn) [Example 167, N-[(3S)-9-fluoro-2-oxo-5-phenyl-1,3-dihydro-1,4-benzodiazepin-3-yl]-2-(2-fluorophenyl)-5-(morpholin-4-ylmethyl)-6,7-dihydro-5H-pyrazolo[5,1-b][1,3]oxazine-3-carboxamide] the EC50 [1] was 91 nM and the CC50 [2] was over 25000 nM.
Work on `Cc1cc(-c2nn3c(c2C(=O)N[C@H]2N=C(c4ccccc4)c4cccc(F)c4NC2=O)O[C@H](C)CC3)c(F)cn1` [Example 79, (5R)-2-(5-Fluoro-2-methylpyridin-4-yl)-N-[(3S)-9-fluoro-2-oxo-5-phenyl-1,3-dihydro-1,4-benzodiazepin-3-yl]-5-methyl-6,7-dihydro-5H-pyrazolo[5,1-b][1,3]oxazine-3-carboxamide] yielded an EC50 [1] of 115 nM and a CC50 [2] of over 25000 nM.
With `CCNc1ccc(-c2nn3c(c2C(=O)N[C@H]2N=C(c4ccccc4)c4cccc(F)c4NC2=O)OCCC3)cn1` [Example 20, 2-[6-(Ethylamino)pyridin-3-yl]-N-[(3S)-9-fluoro-2-oxo-5-phenyl-1,3-dihydro-1,4-benzodiazepin-3-yl]-6,7-dihydro-5H-pyrazolo[5,1-b][1,3]oxazine-3-carboxamide] the EC50 [1] was 42 nM and the CC50 [2] was over 25000 nM.
`CC(C)Nc1ccc(-c2nn3c(c2C(=O)N[C@H]2N=C(c4ccccc4)c4cccc(F)c4NC2=O)OCCC3)cn1` [Example 19, N-[(3S)-9-fluoro-2-oxo-5-phenyl-1,3-dihydro-1,4-benzodiazepin-3-yl]-2-[6-(propan-2-ylamino)pyridin-3-yl]-6,7-dihydro-5H-pyrazolo[5,1-b][1,3]oxazine-3-carboxamide] gave an EC50 [1] of 31 nM and a CC50 [2] of over 25000 nM.
With `C[S+]([O-])c1ccc(-c2nn3c(c2C(=O)N[C@H]2N=C(c4ccccc4)c4cccc(F)c4NC2=O)OCCC3)c(F)c1` (stereo partly drawn) [Example 194, 2-(2-Fluoro-4-methylsulfinylphenyl)-N-[(3S)-9-fluoro-2-oxo-5-phenyl-1,3-dihydro-1,4-benzodiazepin-3-yl]-6,7-dihydro-5H-pyrazolo[5,1-b][1,3]oxazine-3-carboxamide] the EC50 [1] was 43 nM and the CC50 [2] was over 25000 nM.
`C[C@@H]1CCn2nc(-c3cncc(Cl)c3)c(C(=O)N[C@H]3N=C(c4ccccc4)c4ccccc4NC3=O)c2O1` [Example 46, (5R)-2-(5-Chloropyridin-3-yl)-5-methyl-N-[(3S)-2-oxo-5-phenyl-1,3-dihydro-1,4-benzodiazepin-3-yl]-6,7-dihydro-5H-pyrazolo[5,1-b][1,3]oxazine-3-carboxamide] showed an EC50 [1] of 119 nM and a CC50 [2] of over 25000 nM.
`O=C(N[C@H]1N=C(c2ccccc2)c2cccc(F)c2NC1=O)c1c(-c2ccccc2F)nn2c1OCCC2` [Example 21, N-[(3S)-9-fluoro-2-oxo-5-phenyl-1,3-dihydro-1,4-benzodiazepin-3-yl]-2-(2-fluorophenyl)-6,7-dihydro-5H-pyrazolo[5,1-b][1,3]oxazine-3-carboxamide] gave an EC50 [1] of 64 nM and a CC50 [2] of over 25000 nM.
Compound `CC(C)n1cc(-c2nn3c(c2C(=O)N[C@H]2N=C(c4ccccc4)c4ccccc4NC2=O)OCCC3)cn1` [Example 103, N-[(3S)-2-oxo-5-phenyl-1,3-dihydro-1,4-benzodiazepin-3-yl]-2-(1-propan-2-ylpyrazol-4-yl)-6,7-dihydro-5H-pyrazolo[5,1-b][1,3]oxazine-3-carboxamide] has an EC50 [1] of 132 nM and a CC50 [2] of over 25000 nM.
`CCc1ncc(-c2nn3c(c2C(=O)N[C@H]2N=C(c4ccccc4)c4cccc(F)c4NC2=O)O[C@H](C)CC3)cn1` [Example 60, (5R)-2-(2-Ethylpyrimidin-5-yl)-N-[(3S)-9-fluoro-2-oxo-5-phenyl-1,3-dihydro-1,4-benzodiazepin-3-yl]-5-methyl-6,7-dihydro-5H-pyrazolo[5,1-b][1,3]oxazine-3-carboxamide] gave an EC50 [1] of 167 nM and a CC50 [2] of over 25000 nM.
Compound `CC(C)Nc1ccc(-c2nn3c(c2C(=O)N[C@H]2N=C(c4ccccc4)c4cccc(F)c4NC2=O)O[C@@H](C)CC3)cn1` [Example 69] has an EC50 [1] of 34 nM and a CC50 [2] of over 25000 nM.
In the case of `O=C(N[C@H]1N=C(c2ccccc2)c2cccc(F)c2NC1=O)c1c(-c2ccc(NC3CC3)nc2)nn2c1OCCC2` [Example 15, 2-[6-(Cyclopropylamino)pyridin-3-yl]-N-[(3S)-9-fluoro-2-oxo-5-phenyl-1,3-dihydro-1,4-benzodiazepin-3-yl]-6,7-dihydro-5H-pyrazolo[5,1-b][1,3]oxazine-3-carboxamide], the EC50 [1] is reported as 30 nM and the CC50 [2] is reported as over 25000 nM.
`C[C@@H]1CCn2nc(-c3cn[nH]c3)c(C(=O)N[C@H]3N=C(c4ccccc4)c4cccc(F)c4NC3=O)c2O1` [Example 159, (5R)-N-[(3S)-9-fluoro-2-oxo-5-phenyl-1,3-dihydro-1,4-benzodiazepin-3-yl]-5-methyl-2-(1H-pyrazol-4-yl)-6,7-dihydro-5H-pyrazolo[5,1-b][1,3]oxazine-3-carboxamide] showed an EC50 [1] of 395 nM and a CC50 [2] of over 25000 nM.
For `C[C@@H]1CCn2nc(-c3cnn(CC(F)(F)F)c3)c(C(=O)N[C@H]3N=C(c4ccccc4)c4cccc(F)c4NC3=O)c2O1` [Example 118, (5R)-N-[(3S)-9-fluoro-2-oxo-5-phenyl-1,3-dihydro-1,4-benzodiazepin-3-yl]-5-methyl-2-[1-(2,2,2-trifluoroethyl)pyrazol-4-yl]-6,7-dihydro-5H-pyrazolo[5,1-b][1,3]oxazine-3-carboxamide], the EC50 [1] was 43 nM and the CC50 [2] was over 25000 nM.
With `CCN(C(=O)OC(C)(C)C)C1COc2c(C(=O)N[C@H]3N=C(c4ccccc4)c4cccc(F)c4NC3=O)c(-c3ccccc3F)nn2C1` (stereo partly drawn) [Example 108, tert-butyl N-ethyl-N-[3-[[(3S)-9-fluoro-2-oxo-5-phenyl-1,3-dihydro-1,4-benzodiazepin-3-yl]carbamoyl]-2-(2-fluorophenyl)-6,7-dihydro-5H-pyrazolo[5,1-b][1,3]oxazin-6-yl]carbamate] the EC50 [1] was 117 nM and the CC50 [2] was over 25000 nM.
For `C[C@@H]1CCn2nc(-c3ccccc3F)c(C(=O)N[C@H]3N=C(c4ccccc4)c4ccccc4NC3=O)c2O1` [Example 24, (5R)-2-(2-Fluorophenyl)-5-methyl-N-[(3S)-2-oxo-5-phenyl-1,3-dihydro-1,4-benzodiazepin-3-yl]-6,7-dihydro-5H-pyrazolo[5,1-b][1,3]oxazine-3-carboxamide], the EC50 [1] was 77 nM and the CC50 [2] was over 25000 nM.
For `CC1CCOc2c(C(=O)N[C@H]3N=C(c4ccccc4)c4cccc(F)c4NC3=O)c(-c3ccccc3F)nn21` (stereo partly drawn) [Example 105, N-[(3S)-9-fluoro-2-oxo-5-phenyl-1,3-dihydro-1,4-benzodiazepin-3-yl]-2-(2-fluorophenyl)-7-methyl-6,7-dihydro-5H-pyrazolo[5,1-b][1,3]oxazine-3-carboxamide], the EC50 [1] was 48 nM and the CC50 [2] was over 25000 nM.
With `O=C(N[C@H]1N=C(c2ccccc2)c2cccc(F)c2NC1=O)c1c(-c2ccc(NC3CC3)nc2F)nn2c1OCCC2` [Example 39, 2-[6-(Cyclopropylamino)-2-fluoropyridin-3-yl]-N-[(3S)-9-fluoro-2-oxo-5-phenyl-1,3-dihydro-1,4-benzodiazepin-3-yl]-6,7-dihydro-5H-pyrazolo[5,1-b][1,3]oxazine-3-carboxamide] the EC50 [1] was 40 nM and the CC50 [2] was over 25000 nM.
Work on `CCc1ccc(-c2nn3c(c2C(=O)N[C@H]2N=C(c4ccccc4)c4cccc(F)c4NC2=O)O[C@H](C)CC3)c(C)n1` [Example 66, (5R)-2-(6-Ethyl-2-methyl-3-pyridyl)-N-[(3S)-9-fluoro-2-oxo-5-phenyl-1,3-dihydro-1,4-benzodiazepin-3-yl]-5-methyl-6,7-dihydro-5H-pyrazolo[5,1-b][1,3]oxazine-3-carboxamide] yielded an EC50 [1] of 60 nM and a CC50 [2] of over 25000 nM.
`C[C@@H]1CCn2nc(-c3cnn(CC(C)(C)O)c3)c(C(=O)N[C@H]3N=C(c4ccccc4)c4cccc(F)c4NC3=O)c2O1` [Example 122, (5R)-N-[(3S)-9-fluoro-2-oxo-5-phenyl-1,3-dihydro-1,4-benzodiazepin-3-yl]-2-[1-(2-hydroxy-2-methylpropyl)pyrazol-4-yl]-5-methyl-6,7-dihydro-5H-pyrazolo[5,1-b][1,3]oxazine-3-carboxamide] gave an EC50 [1] of 166 nM and a CC50 [2] of over 25000 nM.
With `CN1CCN(CC2COc3c(C(=O)N[C@H]4N=C(c5ccccc5)c5cccc(F)c5NC4=O)c(-c4ccccc4F)nn3C2)CC1` (stereo partly drawn) [Example 172, N-[(3S)-9-fluoro-2-oxo-5-phenyl-1,3-dihydro-1,4-benzodiazepin-3-yl]-2-(2-fluorophenyl)-6-[(4-methylpiperazin-1-yl)methyl]-6,7-dihydro-5H-pyrazolo[5,1-b][1,3]oxazine-3-carboxamide] the EC50 [1] was 235 nM and the CC50 [2] was over 19900 nM.
Work on `O=C(N[C@H]1N=C(c2ccccc2)c2cccc(F)c2NC1=O)c1c(-c2ccccc2F)nn2c1OCC1(CC1)C2` [Example 13] yielded an EC50 [1] of 28 nM and a CC50 [2] of over 24000 nM.
In the case of `CC(C)C1CCn2nc(-c3ccccc3F)c(C(=O)N[C@H]3N=C(c4ccccc4)c4cccc(F)c4NC3=O)c2O1` (stereo partly drawn) [Example 8, N-[(3S)-9-fluoro-2-oxo-5-phenyl-2,3-dihydro-1H-1,4-benzodiazepin-3-yl]-2-(2-fluorophenyl)-5-(propan-2-yl)-5H,6H,7H-pyrazolo[3,2-b][1,3]oxazine-3-carboxamide], the EC50 [1] is reported as 37 nM and the CC50 [2] is reported as over 25000 nM.
With `CCS(=O)(=O)c1ccc(-c2nn3c(c2C(=O)N[C@H]2N=C(c4ccccc4)c4cccc(F)c4NC2=O)O[C@H](C)CC3)c(F)c1` [Example 197, (5R)-2-(4-Ethylsulfonyl-2-fluorophenyl)-N-[(3S)-9-fluoro-2-oxo-5-phenyl-1,3-dihydro-1,4-benzodiazepin-3-yl]-5-methyl-6,7-dihydro-5H-pyrazolo[5,1-b][1,3]oxazine-3-carboxamide] the EC50 [1] was 97 nM and the CC50 [2] was over 25000 nM.
